Laboratory results as given in patent US6552070B2, “Health food useful for preventing liver and biliary dysfunctions containing an alkanoyl L-carnitine and Silybum marianum extract” (Sigma-Tau HealthScience S.p.A., priority 2000, dated 2003).

Columns and labels:
[1] = test system: galactosamine-induced liver intoxication; assay: Protection against hepatotoxic effects induced by galactosamine in the rat; format: in vivo
Protocol: In these tests the method adopted was that described by Reuter (Reuter W., Trends in the Therapy of Liver Diseases Proceeding, Ed. A. Bertelli, pp. 121, 1974, Karger Basel 1975).
Rats weighing approximately 250 g received daily oral administrations for two days consecutively of 200 mg/kg of isovaleryl L-carnitine or 200 mg/kg of propionyl L-carnitine or 100 mg/kg of silymarin or a combination of these compounds at the same doses. After 24 hours, the same rats were administered 400 mg/kg i.p. of galactosamine. After a further 24 hours, blood samples taken from the animals were used to determine both glutamic-oxalacetic […] (GOT) and the bilirubin present in plasma, according to the method described by Keppler (Keppler D., Exp. Mol. Pathol, 9, 279, 1968).

rat liver cells = assay: Protection against CCl4 toxicity on isolated liver cell cultures; conditions: CCl4 100 mg L^−1; for Concentration of AlaAT in supernatant of liver cells exposed to CCl4 / Concentration of AspAT in supernatant of liver cells exposed to CCl4: I 100 mg L^−1, P 100 mg L^−1, S 50 mg L^−1; for Inhibition of toxic and lipoperoxidative effects caused by CCl4 on liver cell cultures (in words): summary of Tables 1 and 2
[2] = rat plasma 24 hours after galactosamine 400 mg/kg i.p., oral pretreatment two days, alkanoyl L-carnitine 200 mg/kg, silymarin 100 mg/kg

| Structure (SMILES) | Protective effect against galactosamine-induced liver intoxication (in words) ([1]; rat) | Bilirubin [1, 2] | GOT [1, 2] | GluDH ([1]; rat, 24 hours after galactosamine 400 mg/kg i.p., oral pretreatment two days, alkanoyl L-carnitine 200 mg/kg, silymarin 100 mg/kg) | Concentration of AlaAT in supernatant of liver cells exposed to CCl4 (rat liver cells; 4 hours) [nmol/min/L] | Concentration of AspAT in supernatant of liver cells exposed to CCl4 (rat liver cells; 4 hours) [nmol/min/L] | Concentration of AlaAT in supernatant of liver cells exposed to CCl4 (rat liver cells; 8 hours) [nmol/min/L] | Concentration of AspAT in supernatant of liver cells exposed to CCl4 (rat liver cells; 8 hours) [nmol/min/L] | Concentration of AlaAT in supernatant of liver cells exposed to CCl4 (rat liver cells; 16 hours) [nmol/min/L] | Concentration of AspAT in supernatant of liver cells exposed to CCl4 (rat liver cells; 16 hours) [nmol/min/L] | Inhibition of toxic and lipoperoxidative effects caused by CCl4 on liver cell cultures (in words) (rat liver cells) | Enzyme activity (GOT) and bilirubin after galactosamine (in words) ([1]; rat, oral pretreatment, galactosamine 400 mg/kg i.p.) |
| --- | --- | --- | --- | --- | --- | --- | --- | --- | --- | --- | --- | --- |
| CC(C)CC(=O)O[C@H](CC(=O)[O-])C[N+](C)(C)C [Isovaleryl L-carnitine, isovaleryl L-carnitine] | protective activity | 0.15 ± 0.04 | 215 ± 30.5 | 64 ± 6.8 | 19.4 ± 2.4 | 6.9 ± 1.1 | 16.7 ± 3.1 | 6.2 ± 0.9 | 15.6 ± 2.7 | 5.5 ± 1.2 | partly inhibiting |  |
| CCC(=O)O[C@H](CC(=O)[O-])C[N+](C)(C)C [Propionyl L-carnitine, propionyl L-carnitine] |  |  |  |  | 22.3 ± 4.1 | 7.5 ± 0.9 | 18.4 ± 2.3 | 5.5 ± 1.2 | 16.6 ± 1.9 | 5.2 ± 1.4 | partly inhibiting | reduced |
